According to patent US20260216144A1, “TARGETING MB2 OF THE MYC ONCOGENE AND ITS INTERACTION WITH TRRAP IN CANCER” (priority 2019, published 2026):

target: MYC:TRRAP interaction (Homo sapiens, UniProt P01106+Q9Y4A5); assay: MYC:TRRAP in-cell luminescence complementation assay (NanoBiT; SmB-MYC 1-190 and TRRAP 2033-2283-LgB in HeLa cells); format: cell-based; details: Table 1; 46 primary hits at 10 uM; HeLa cells; triplicate measurements
Procedure: HeLa cells plated on Greiner 96-well TC-rated white plates with clear bottoms were used for the following measurements. Reverse transfections were carried out using LipoD293™ before cells were plated. A bluescript KS' plasmid (Addgene) was used as carrier DNA for transfections, and a pcDNA3.1 EGFP plasmid (ThermoFisher) was used as a fluorescence reporter. White light-reflecting film (USA Scientific) was used to cover the bottom of the plates for luminescence measurements. Black light-absorbing film was used to cover the top of the plates for fluorescence measurements. All measurements were taken on a SpectraMax i3 instrument (Molecular Devices).
Transfections were carried out with increasing DNA amounts (1-100 ng per well) of a CMV-driven LgB plasmid and SmB in excess or vice-versa. Background luminesce for the usable range and the amount of DNA needed for vast excess of LgB or SmB were noted. Next, complementation with vast excess either LgB or SmB was used to determine the expression of each of the indicated MYC and TRRAP constructs for a range of DNA amounts per well: 10-100 ng. An optimal ratio of DNA to equalize the expression of each MYC and TRRAP pair was calculated. Then, signal-to-noise ratios were calculated for the indicated MYC and TRRAP pairs, and the pair with the highest ratio was chosen. Finally, the chosen pair was used to determine the optimal DNA transfection mixture. It was determined to be 6.7 ng of a plasmid with a MYC construct, 60 ng of a plasmid with a TRRAP construct and 33.3 ng of the pcDNA 3.1 EGFP plasmid, for each well in a 96-well plate. Unless otherwise indicated, these were the ratios of DNA transfected for this type of assay.
HeLa cells were transfected as above using LipoD293™ with a mixture of SmB-MYC 1-190, TRRAP 2033-2283-LgB, and EGFP in CMV-driven plasmids at the same optimized ratio described above. Two days post-transfection, the media in each well was replaced with fresh media containing each compound from the NCI's sets at 25 μM. Cells were incubated for 2 h with each compound, and luminescence and fluorescence measurements were recorded for each well. Changes in luminescence were normalized to fluorescence. The following pre-plated compound sets were obtained from the NCI/DTP chemical repository and used for this screen:
These chemical sets were used to discover novel small-molecule inhibitors of the MYC:TRRAP complex. SmB-MYC 1-190, TRRAP 2033-2283-LgB, and EGFP were transfected into HeLa cells. Two days post-transfection, compounds were added to the media at 25 μM and cells were incubated for 2h. Luminescence and fluorescence were recorded for each well containing one of the compounds. Changes in luminescence measurements were normalized to fluorescence measurements.
Afterwards, only molecules that reduced luminescence levels to <50% RLU were considered. This set of 46 compounds were incubated at 10 μM with vector-expressing cells. Luminescence complementation was measured and repeated in triplicate measurements. In addition, HeLa cells expressing LgB and SmB alone were incubated with the same compounds to rule out potentially artificial results due to inhibition of luciferase or its complementation. Molecules that induces any significant reduction in luminescence (<0.6) during this control assay were not considered further. Of 2947 molecules, 17 were chosen for further testing and ordered from the NCI/DTP Open Chemical Repository. FIG. 16 describes these chosen compounds.
Using the luminescence assay above as a readout for the MYC:TRRAP interaction, we used a robotic liquid handler to evaluate 2987 additional compounds (25 μM). All primary hits were counter-screened for any activity against the luciferase enzyme itself and for any effects on the expression of the fusion proteins. We set a threshold of 50% inhibition to consider compounds further. Only 17 out of 2987 passed all these criteria (0.6%). […]

Sequence of MYC:TRRAP interaction (P01106 16-205): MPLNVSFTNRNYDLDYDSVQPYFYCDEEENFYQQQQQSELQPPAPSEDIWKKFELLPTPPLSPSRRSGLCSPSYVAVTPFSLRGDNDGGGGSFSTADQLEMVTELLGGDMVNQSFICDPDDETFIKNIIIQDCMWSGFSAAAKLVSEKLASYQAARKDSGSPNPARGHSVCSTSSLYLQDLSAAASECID
Sequence of MYC:TRRAP interaction (Q9Y4A5 2051-2301): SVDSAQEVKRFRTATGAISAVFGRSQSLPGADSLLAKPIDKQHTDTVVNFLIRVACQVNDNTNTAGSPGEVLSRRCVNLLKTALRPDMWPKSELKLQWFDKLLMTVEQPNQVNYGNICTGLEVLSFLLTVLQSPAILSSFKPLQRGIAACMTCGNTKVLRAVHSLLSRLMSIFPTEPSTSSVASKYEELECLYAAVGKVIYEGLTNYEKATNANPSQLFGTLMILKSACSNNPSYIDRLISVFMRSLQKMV

SMILES	% Inhibition 10 uM [%]
CC(C)(C)c1cc(C=C(C#N)C#N)cc(C(C)(C)C)c1O [Compound 25, 2-[(3,5-ditert-butyl-4-hydroxyphenyl)methylidene] propanedinitrile]	42.52
Cc1ccc(NC(=S)C#N)c(C)c1 [Compound 26, 1-cyano-N-(2,4-dimethylphenyl) methanethioamide]	90.89
CC1=C(CCC(=O)O)c2cc3nc(cc4[nH]c(cc4C)cc4[nH]c(cc1n2)cc4C)C(C)=C3CCC(=O)O [Compound 27, 3-[18-(2-carboxyethyl)-3,8,13,17-tetramethyl-22,23-dihydroporphyrin-2-yl]propanoic acid]	75.42
COc1c(OC)c2c3c(nccc3c1OC)-c1cc(=O)c(OC)ccc1-2 [Compound 30]	68.68
Cc1cc2c(C(C)C)c(O)c(O)c(C=O)c2c(O)c1-c1c(C)cc2c(C(C)C)c(O)c(O)c(C=O)c2c1O [Compound 31, 7-(8-formyl-1,6,7-trihydroxy-3-methyl-5-propan-2-ylnaphthalen-2-yl)-2,3,8-trihydroxy-6-methyl-4-propan-2-ylnaphthalene-1-carbaldehyde]	68.27
FC(F)(F)c1cccc(-c2nc3nc(Cl)c(Cl)[nH]c-3n2)c1 [Compound 32, 5,6-dichloro-2-[3-(trifluoromethyl)phenyl]-1H-imidazo[4,5-b]pyrazine]	80.85
CC1=C(C)C(=O)O[C@H]([C@](C)(O)[C@]2(O)CC[C@@]3(O)[C@@H]4C[C@H]5O[C@]56CC=CC(=O)[C@]6(C)[C@H]4CC[C@]23C)C1 [Compound 33, (1S,2R,7S,9R,11R, 12R,15S,16S)-15-[(1S)-1-[(2S)-4,5-dimethyl-6-oxo-2,3-dihydropyran-2-yl]-1-hydroxyethyl]-12,15-dihydroxy-2,16-dimethyl-8-oxapentacyclo [9.7.0.02, 7.07,9.012,16] octadec-4-en-3-one]	29.74
COc1cccc2c1C(=O)c1c(O)c3c(c(O)c1C2=O)C[C@@](O)(C(C)=O)C[C@@H]3OC1CC(N(Cc2ccccc2)Cc2ccccc2)C(O)C(C)O1.Cl (stereo partly drawn) [Compound 34, (7S,9S)-9-acetyl-7-[4-(dibenzylamino)-5-hydroxy-6-methyloxan-2-yl]oxy-6,9,11-trihydroxy-4-methoxy-8,10-dihydro-7H-tetracene-5,12-dione; hydrochloride]	78.65
N[C@@H](Cc1ccc2oc3cc(=O)c4ccccc4c-3nc2c1)C(=O)O.O=[N+]([O-])O [Compound 36, (2S)-2-amino-3-(5-oxobenzo[a]pheno-xazin-10-yl)propanoic acid; nitric acid]	73.39
CC1Oc2cc3c(-c4c(O)cc(O)c5c(O)c6c(cc45)OC(C)C(C)C6=O)c(O)cc(O)c3c(O)c2C(=O)C1C (centres unmarked) [Compound 38]	76.03
COc1cc2c3c(cc4ccccc4c3c1O)N(C)CC2 [Compound 39]	73.42
COc1c2c(cc3c1C1Oc4c(ccc(O)c4CC=C(C)C)C1CO3)OC(C)(C)C=C2 (centres unmarked) [Compound 45, 21-methoxy-17,17-dimethyl-5-(3-methylbut-2-enyl)-3,12,16-trioxapentacyclo [11.8.0.02,10.04, 9.015,20] henicosa-1(13),4(9),5,7, 14,18, 20-heptaen-6-ol]	85.82

Continued, values first:

% Inhibition 10 uM [%]	SMILES
66.32	O=C1c2ccccc2C(=O)c2sc(Nc3ccc(Cl)cc3)nc21 [Compound 28, 2-(4-chloroanilino)benzo [f][1,3] benzothiazole-4,9-dione]
50.79	CN(C)c1ccc(/C=C/C(=O)c2cc(Cl)ccc2O)cc1 [Compound 35, (E)-1-(5-chloro-2-hydroxyphenyl)-3-[4-(dimethylamino)phenyl]prop-2-en-1-one]
84.83	Cc1ccc2c(c1)C=C/C(=C\C=C1/C=CC(=O)c3ncccc31)N2C [Compound 37, 5-[2-(1,6-dimethylquinolin-1-ium-2-yl)ethenyl]quinolin-8-ol]
76.06	CC1(C)CCC2=C(O1)c1ccccc1C(=O)C2=O [Compound 40, 2,2-dimethyl-3,4-dihydrobenzo[h] chromene-5,6-dione]
78.97	COc1cc(/N=N/c2cccc(S(N)(=O)=O)c2)c2ccccc2c1N [Compound 41, 3-[(4-amino-3-methoxy-naphthalen-1-yl)diazenyl] benzene-sulfonamide]
102.5	COC(=O)[C@H]1[C@H]2C[C@@H]3c4[nH]c5ccccc5c4CCN3C[C@H]2C[C@@H](OC(=O)c2cc(OC)c(OC)c(OC)c2)[C@@H]1OC [Compound 42, methyl (1R,15S,17R,18R, 19S,20S)-18-methoxy-17-(3,4,5-trimethoxybenzoyl) oxy-1,3,11,12,14,15,16, 17,18,19,20,21-dodecahydro-yohimban-19-carboxylate]
93.68	CN(C)c1ccc2c(c1)Sc1cc(N(C)C)ccc1N2C(=O)c1ccccc1 [Compound 44, [3,7-bis(dimethylamino)phenothiazin-10-yl]-phenylmethanone]

same assay, conditions: Table 2; compounds with >80% similarity to compound 10 (NSC657456); 10 uM

SMILES	% Inhibition 10 uM [%]
N=C(S)/N=N/c1c(O)[nH]c2ccccc12 [Compound 101, (2-hydroxy-1H-indol-3-yl)iminothiourea]	104.5
N=C(/N=N/c1c(O)[nH]c2ccccc12)N[N+](=O)[O-] [Compound 102, 1-[(2-hydroxy-1H-indol-3-yl)imino]-3-nitroguanidine]	100.4
N=C(N)/N=N/c1c(O)[nH]c2ccccc12 [Compound 104, 1-[(2-hydroxy-1H-indol-3-yl)imino] guanidine]	123.9
NC(=O)/N=N/c1c(O)n(O)c2ccccc12 [Compound 106, (1,2-dihydroxyindol-3-yl)iminourea]	127.3
NC(=O)/N=N/c1c(O)[nH]c2ccccc12 [Compound 107, (2-hydroxy-1H-indol-3-yl)iminourea]	112.6

More lines, now with the values ahead:

% Inhibition 10 uM [%]	SMILES
88.83	N=C(/N=N/c1c(O)[nH]c2ccccc12)C(=N)/N=N/c1c(O)[nH]c2ccccc12 [Compound 103, 1-N,2-N-bis[(2-hydroxy-1H-indol-3-yl)imino]ethane-diimidamide]
65.25	Oc1[nH]c2ccccc2c1/N=N/C(S)=N/c1ccccc1 [Compound 105, 1-[(2-hydroxy-1H-indol-3-yl)imino]-3-phenylthiourea]
86.25	CN(C)C(=S)/N=N/c1c(O)[nH]c2ccccc12 [Compound 108]
54.48	O=[N+]([O-])c1ccc(/N=N/c2c(O)[nH]c3ccccc23)cc1 [Compound 109, 3-[(4-nitrophenyl)diazenyl]-1H-indol-2-ol]
94.76	Cc1ccccc1/N=N/c1c(O)[nH]c2ccccc12 [Compound 1010, 3-[(2-methylphenyl)diazenyl]-1H-indol-2-ol]
64.75	Oc1[nH]c2ccccc2c1/N=N/c1ccccc1Cl [Compound 1011, 3-[(2-chlorophenyl)diazenyl]-1H-indol-2-ol]
66.53	Oc1[nH]c2ccccc2c1/N=N/c1ccccc1 [Compound 1012, 3-phenyldiazenyl-1H-indol-2-ol]
83.25	O=C(/N=N/c1c(O)[nH]c2ccccc12)Nc1ccccc1 [Compound 1013, 1-[(2-hydroxy-1H-indol-3-yl)imino]-3-phenylurea]
